Where only a bound is given, the exact number is not on record here.

The values below come from patent US9611269B2, “Azetidinyl phenyl, pyridyl or pyrazinyl carboxamide derivatives as JAK inhibitors” (Incyte Corporation, priority 2011, dated 2017).

Type in all cases: biochemical
The target of assay [1] is human JAK2 (a.a. 828-1132) catalytic domain (Homo sapiens (Human), UniProt O60674). The assay can be described thus: In vitro JAK kinase assay (HTRF, 1 mM ATP), JAK2. To be noted: at 1 mM ATP.
Experimental: (§1) The catalytic activity of JAK1, JAK2 or JAK3 was assayed by measuring the phosphorylation of a biotinylated peptide. The phosphorylated peptide was detected by homogenous time resolved fluorescence (HTRF). […] Reactions were carried out at room temperature for 1 hour and then stopped with 20 μL 45 mM EDTA, 300 nM SA-APC, 6 nM Eu-Py20 in assay buffer (Perkin Elmer, Boston, Mass.). Binding to the Europium labeled antibody took place for 40 minutes and HTRF signal was measured on a Fusion plate reader (Perkin Elmer, Boston, Mass.).
Assay [2] relates to human JAK1 (a.a. 837-1142) catalytic domain. The assay can be described thus: In vitro JAK kinase assay (HTRF, 1 mM ATP), JAK1.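 Further: kinase activity followed as phosphorylation of a biotin-tagged peptide, detected by HTRF with Eu-labelled anti-phosphotyrosine antibody and SA-APC, after 1 h reaction at room temperature.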 To be noted: ratio of JAK2 IC50 to JAK1 IC50 at 1 mM ATP. For orientation: TR-FRET usually uses a lanthanide donor and a delayed reading to cut background.
Experimental: as §1
For assay [3], the target named is human JAK1 (a.a. 837-1142) catalytic domain (Homo sapiens, UniProt P23458). Put plainly: In vitro JAK kinase assay (HTRF, 1 mM ATP), JAK1.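 Further: kinase activity followed as phosphorylation of a biotin-tagged peptide, detected by HTRF with Eu-labelled anti-phosphotyrosine antibody and SA-APC, after 1 h reaction at room temperature.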 As to conditions: at 1 mM ATP.
human JAK1 (a.a. 837-1142) catalytic domain (Homo sapiens, UniProt P23458), sequence (P23458 whole entry, looked up, the tested form may be a part): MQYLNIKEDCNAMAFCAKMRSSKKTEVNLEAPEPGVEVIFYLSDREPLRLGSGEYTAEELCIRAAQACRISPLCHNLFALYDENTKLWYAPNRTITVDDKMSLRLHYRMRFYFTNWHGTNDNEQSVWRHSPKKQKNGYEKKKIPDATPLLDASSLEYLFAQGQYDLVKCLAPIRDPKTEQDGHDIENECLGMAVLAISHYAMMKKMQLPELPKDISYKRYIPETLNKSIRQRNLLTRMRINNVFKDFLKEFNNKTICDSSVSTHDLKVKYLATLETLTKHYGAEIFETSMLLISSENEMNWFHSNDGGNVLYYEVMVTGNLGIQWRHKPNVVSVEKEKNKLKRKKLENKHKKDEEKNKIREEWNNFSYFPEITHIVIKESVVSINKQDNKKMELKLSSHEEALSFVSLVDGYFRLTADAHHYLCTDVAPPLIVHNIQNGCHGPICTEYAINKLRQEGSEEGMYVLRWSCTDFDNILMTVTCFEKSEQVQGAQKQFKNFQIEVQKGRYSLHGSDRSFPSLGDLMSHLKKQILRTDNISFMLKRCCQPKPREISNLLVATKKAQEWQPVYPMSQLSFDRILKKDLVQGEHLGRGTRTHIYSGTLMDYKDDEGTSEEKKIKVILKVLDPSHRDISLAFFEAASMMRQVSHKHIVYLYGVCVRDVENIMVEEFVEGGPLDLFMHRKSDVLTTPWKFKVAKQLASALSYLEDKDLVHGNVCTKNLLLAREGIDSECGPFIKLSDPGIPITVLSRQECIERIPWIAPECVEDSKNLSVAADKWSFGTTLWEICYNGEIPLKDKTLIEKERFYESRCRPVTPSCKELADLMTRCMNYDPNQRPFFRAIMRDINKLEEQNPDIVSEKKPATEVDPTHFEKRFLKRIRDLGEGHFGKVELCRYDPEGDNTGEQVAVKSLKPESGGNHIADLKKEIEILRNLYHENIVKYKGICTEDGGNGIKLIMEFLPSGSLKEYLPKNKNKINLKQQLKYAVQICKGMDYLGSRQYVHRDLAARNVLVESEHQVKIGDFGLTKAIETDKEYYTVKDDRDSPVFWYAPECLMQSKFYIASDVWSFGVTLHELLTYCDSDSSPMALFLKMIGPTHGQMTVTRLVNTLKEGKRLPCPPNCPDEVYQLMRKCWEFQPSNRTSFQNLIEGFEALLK
Experimental: as §1

human JAK2 (a.a. 828-1132) catalytic domain, sequence (O60674 828-1132): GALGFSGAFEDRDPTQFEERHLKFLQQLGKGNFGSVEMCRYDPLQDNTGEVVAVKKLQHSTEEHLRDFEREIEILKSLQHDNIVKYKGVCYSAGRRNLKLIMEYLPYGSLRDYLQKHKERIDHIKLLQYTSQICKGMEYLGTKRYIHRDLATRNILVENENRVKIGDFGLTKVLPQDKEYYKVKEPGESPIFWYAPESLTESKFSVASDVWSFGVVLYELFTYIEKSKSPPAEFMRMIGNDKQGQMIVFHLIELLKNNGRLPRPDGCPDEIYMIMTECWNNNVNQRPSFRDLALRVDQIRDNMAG

The term IC50 denotes the concentration needed to halve the response being measured. High values mean weaker potency in that assay, low ones greater potency in that assay. Regarding `C[C@H](NC(=O)c1cnc(N2CC(CC#N)(n3cc(-c4ccnc5[nH]ccc45)cn3)C2)cn1)C(F)(F)F` [Example 35, 5-{3-(Cyanomethyl)-3-[4-(1H-pyrrolo[2,3-b]pyridin-4-yl)-1H-pyrazol-1-yl]azetidin-1-yl}-N-[(1S)-2,2,2-trifluoro-1-methylethyl]pyrazine-2-carboxamide], the IC50 in assay [1] was 10 to 40 nM; in assay [3], less than 10 nM. The JAK2/JAK1 result in assay [2] is “A (A means greater than or equal to 10)”.
On the same counts, the results for `CC(C)NC(=O)c1ccc(N2CC(CC#N)(n3cc(-c4ccnc5[nH]ccc45)cn3)C2)c(F)c1` [Example 27, 4-{3-(Cyanomethyl)-3-[4-(1H-pyrrolo[2,3-b]pyridin-4-yl)-1H-pyrazol-1-yl]azetidin-1-yl}-3-fluoro-N-isopropylbenzamide] are no more than 10 nM, less than 10 nM and “A (A means greater than or equal to 10)”.
Turning to `N#CCC1(n2cc(-c3ccnc4[nH]ccc34)cn2)CN(c2cnc(C(=O)N[C@@H](C3CC3)C(F)(F)F)cn2)C1` [Example 42, 5-{3-(Cyanomethyl)-3-[4-(1H-pyrrolo[2,3-b]pyridin-4-yl)-1H-pyrazol-1-yl]azetidin-1-yl}-N-[(1S)-1-cyclopropyl-2,2,2-trifluoroethyl]pyrazine-2-carboxamide], the half-maximal inhibitory concentration (IC50) is 10 to 40 nM in assay [1] and less than 10 nM in assay [3]. For the same molecule, the JAK2/JAK1 entry in assay [2] was “A (A means greater than or equal to 10)”.
Regarding `C[C@H](NC(=O)c1cc(F)c(N2CC(CC#N)(n3cc(-c4ncnc5[nH]ccc45)cn3)C2)cc1F)C(F)(F)F` [Example 28, 4-{3-(Cyanomethyl)-3-[4-(7H-pyrrolo[2,3-d]pyrimidin-4-yl)-1H-pyrazol-1-yl]azetidin-1-yl}-2,5-difluoro-N-[(1S)-2,2,2-trifluoro-1-methylethyl]benzamide], the IC50 in assay [1] was no more than 10 nM; in assay [3], less than 10 nM. Moreover, in assay [2], the JAK2/JAK1 result is on record as “A (A means greater than or equal to 10)”.
On the same counts, the results for `C[C@H](NC(=O)c1cnc(N2CC(CC#N)(n3cc(-c4ccnc5[nH]ccc45)cn3)C2)cn1)C1CC1` [Example 41, 5-{3-(Cyanomethyl)-3-[4-(1H-pyrrolo[2,3-b]pyridin-4-yl)-1H-pyrazol-1-yl]azetidin-1-yl}-N-[(1S)-1-cyclopropylethyl]pyrazine-2-carboxamide] are 10 to 40 nM, less than 10 nM and “A (A means greater than or equal to 10)”.
